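Briefly, cells in 96-well plates were exposed to five compound concentrations for 48 h, and endpoints were estimated by linear interpolation. At the GI50, growth is halved.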 The source made the active and inactive calls. Rule as the data show it: active = GI50 up to about 1.1 µM and inactive = higher.
Assays:
Test in all cases: NCI tumour cell line growth inhibition, 48 h
[1] = system: BT-549
[2] = system: COLO 205
[3] = system: DU-145
[4] = system: HCT-116
[5] = system: HOP-92
[6] = system: IGROV-1
[7] = system: KM12
[8] = system: M14
[9] = system: MCF7
[10] = system: MDA-MB-231
[11] = system: Malme-3M
[12] = system: NCI-H522
[13] = system: NCI/ADR-RES
[14] = system: RPMI-8226
[15] = system: SF-268
[16] = system: SF-295
[17] = system: SN12C
[18] = system: UO-31
[19] = system: HCC 2998
[20] = system: OVCAR-3

Row | SMILES | GI50 [1] | GI50 [2] | GI50 [3] | GI50 [4] | GI50 [5] | GI50 [6] | GI50 [7] | GI50 [8] | GI50 [9] | GI50 [10] | GI50 [11] | GI50 [12] | GI50 [13] | GI50 [14] | GI50 [15] | GI50 [16] | GI50 [17] | GI50 [18] | GI50 [19] | GI50 [20]
1 | Nc1ccc2c(O)cc(O)nc2n1 | > 100 µM (inactive) | > 100 µM (inactive) | > 100 µM (inactive) | > 100 µM (inactive) | > 100 µM (inactive) | > 100 µM (inactive) | > 100 µM (inactive) | > 100 µM (inactive) | > 100 µM (inactive) | > 100 µM (inactive) | 37.8 µM (inactive) | > 100 µM (inactive) | > 100 µM (inactive) | > 100 µM (inactive) | > 100 µM (inactive) | > 100 µM (inactive) | > 100 µM (inactive) | > 100 µM (inactive) | – | –
2 | CC1(C)[C@@H]2C[C@H]1[C@@H](Cc1cccc(C[C@H]3c4cc(-c5ccccn5)ncc4[C@H]4C[C@@H]3C4(C)C)c1)c1cc(-c3ccccn3)ncc12 | > 100 µM (inactive) | 2.93 µM (inactive) | 1.09 µM (active) | 1.09 µM (active) | 9.04 µM (inactive) | 3.49 µM (inactive) | 3.12 µM (inactive) | 2.76 µM (inactive) | 4.92 µM (inactive) | > 31.8 µM (inactive) | – | 8.93 µM (inactive) | 3.78 µM (inactive) | 1.47 µM (inactive) | 1.97 µM (inactive) | 0.69 µM (active) | 5.68 µM (inactive) | 1.22 µM (inactive) | 12.4 µM (inactive) | > 30.5 µM (inactive)
3 | CC1S/C(=N/c2nnc(-c3ccccc3)o2)NC1=O (configuration not stated) | 71.4 µM (inactive) | 47.1 µM (inactive) | 81.3 µM (inactive) | 17.7 µM (inactive) | > 100 µM (inactive) | 43.9 µM (inactive) | 46.1 µM (inactive) | 21.5 µM (inactive) | 44 µM (inactive) | 43.3 µM (inactive) | 41.4 µM (inactive) | 28 µM (inactive) | 36.6 µM (inactive) | 49 µM (inactive) | 34.5 µM (inactive) | 18.3 µM (inactive) | 36.1 µM (inactive) | 30.2 µM (inactive) | – | 18.5 µM (inactive)
4 | Cc1cccc(C)c1NC(=S)NC=C(C(N)=O)C(N)=O | > 100 µM (inactive) | > 100 µM (inactive) | > 100 µM (inactive) | > 100 µM (inactive) | > 100 µM (inactive) | > 100 µM (inactive) | > 100 µM (inactive) | > 100 µM (inactive) | > 100 µM (inactive) | > 100 µM (inactive) | – | > 100 µM (inactive) | > 100 µM (inactive) | > 100 µM (inactive) | > 100 µM (inactive) | > 100 µM (inactive) | > 100 µM (inactive) | > 100 µM (inactive) | > 100 µM (inactive) | > 100 µM (inactive)
5 | CC1=NN(c2cccc(Cl)c2)C2(SCC(=O)N2c2nc3ccccc3s2)/C1=C\c1cccs1 (configuration not stated) | 17.6 µM (inactive) | – | 46.5 µM (inactive) | 20.6 µM (inactive) | 22.2 µM (inactive) | 27.3 µM (inactive) | 25.8 µM (inactive) | 29.7 µM (inactive) | 27.4 µM (inactive) | 30.2 µM (inactive) | – | 21.2 µM (inactive) | 21.9 µM (inactive) | 17.7 µM (inactive) | 18.9 µM (inactive) | 27.4 µM (inactive) | – | 22.4 µM (inactive) | 16.6 µM (inactive) | 24.8 µM (inactive)
6 | CC[C@]1(Cc2ccc(OC)c(OC)c2)C=[N+]([O-])O[C@H](OC2CCCC2(c2ccccc2)c2ccccc2)[C@@H]1OC(=O)C(C)(C)C (some centres not stated) | 4.38 µM (inactive) | 2.6 µM (inactive) | 2 µM (inactive) | 1.98 µM (inactive) | 4.14 µM (inactive) | 2.62 µM (inactive) | 2.54 µM (inactive) | 3.51 µM (inactive) | 2.74 µM (inactive) | 5.56 µM (inactive) | – | 1.61 µM (inactive) | 2.29 µM (inactive) | – | 3.15 µM (inactive) | 3.47 µM (inactive) | 3.07 µM (inactive) | 1.77 µM (inactive) | 1.94 µM (inactive) | 1.55 µM (inactive)
7 | O=C(O)C1CCCN1Cc1cc2ccccc2c2ccccc12 (configuration not stated) | > 100 µM (inactive) | > 100 µM (inactive) | > 100 µM (inactive) | > 100 µM (inactive) | > 100 µM (inactive) | > 100 µM (inactive) | > 100 µM (inactive) | > 100 µM (inactive) | > 100 µM (inactive) | > 100 µM (inactive) | > 100 µM (inactive) | > 100 µM (inactive) | > 100 µM (inactive) | > 100 µM (inactive) | > 100 µM (inactive) | > 100 µM (inactive) | > 100 µM (inactive) | > 100 µM (inactive) | – | > 100 µM (inactive)
8 | Oc1ccc2c(c1)OCC1c3ccccc3OC21 (configuration not stated) | 55.2 µM (inactive) | > 100 µM (inactive) | > 100 µM (inactive) | 91.2 µM (inactive) | > 100 µM (inactive) | 51.9 µM (inactive) | 45.4 µM (inactive) | 74 µM (inactive) | 86.5 µM (inactive) | 78 µM (inactive) | – | – | 37.8 µM (inactive) | 45.7 µM (inactive) | 25.4 µM (inactive) | 50.6 µM (inactive) | 51.6 µM (inactive) | 52.8 µM (inactive) | 27.8 µM (inactive) | 59 µM (inactive)

Source: ChEMBL document CHEMBL1201862, “PubChem BioAssay data set” (2004)
